Data on 6 molecules can be found in patent publication US10941120B1, “6-aminouracil cassic acid ester with antibacterial activity and a method of preparing the same” (SHAANXI UNIVERSITY OF SCIENCE AND TECHNOLOGY, priority 2020, dated 2021).

The term MIC denotes the least concentration at which growth counts as inhibited.

Type in all cases: cell-based
In test [1] the test system is carbapenem-resistant Acinetobacter baumannii CR-AB 18-183. As to the kind of experiment: MIC by microbroth dilution, CR-AB 18-183. From the text:
(§1) The minimal inhibitory concentration (MIC) of the compounds as determined by a microbroth dilution method with gentamicin, cefazolin sodium and ceftriaxone sodium as positive control.
(§2) The experimental strains included methicillin-resistant Gram-positive bacteria: methicillin-resistant Staphylococcus aureus MRSA 18-222, 18-575; multiple drug-resistant […] bacteria: vancomycin-resistant enterococci VRE 18-80, 18-94; multidrug-resistant Pseudomonas aeruginosa MDR-PA 18-1774, 18-202; carbapenem-resistant Acinetobacter baumannii CR-AB 18-183, 18-560. All the experimental strains were donated by Huashan Hospital affiliated to Fudan University (Institute of Antibiotics, Fudan University) and used after routine identification.
(§3) Preparation of Test Strains:
(§4) Preparation of MHB medium: 20.0 g MHB medium was added to 1 L distilled water, boiled until completely dissolved, packed in conical bottles and sterilized at 121° C. for 15 min.
(§5) The experimental strain was cultured to the logarithmic growth phase: under aseptic condition, the experimental strain was inoculated into 100 mL NMB medium and incubated in a constant temperature and humidity incubator at 37° C. for 20-22 hours.
(§6) Preparation of storage solution: weigh the sample to be tested, dissolve it with 1% DMSO solution, prepare a storage solution with a concentration of 2560 μg/mL, weigh a positive reference substance, dissolve it with aseptic distilled water, and configure a storage solution with a concentration of 2560 μg/mL.
(§7) Preparation of bacterial suspension: under aseptic condition, the experimental strains cultured to logarithmic growth phase were adjusted to 0.5 MCF turbidity standard with MHB medium and diluted according to 1:10, and the bacterial suspension with concentration of 10^6 CFU/mL was prepared for standby.
(§8) Dilution of storage solution and inoculation of experimental strain: under aseptic condition, the storage solution was diluted to 256 μg/mL solution. Take a sterile 96-well plate, add 200 μL MHB medium to the 12th well, and add 100 μL MHB medium to each well. Add 100 μL of positive control solution to the first well, mix well, and suck 100 μL from it and discard. Add 100 μL of the compound sample solution to the second well, mix well, and then pipette 100 μL to the third well. After mixing, pipette 100 μL to the fourth well, and dilute to the 11th well in this way. Finally, 100 μL was pipetted from the 11th well and discarded. The 12th hole was the growth control without drugs. So far, the concentration of the positive reference substance is 128 μg/mL, the concentrations of the sample solution are 128, 64, 16, 8, 4, 2, 1, 0.5, 0.25 μg/mL respectively. Then, 100 μL of the prepared bacterial suspension is added to each well, so that the final concentration of the bacterial liquid in each well is 5×10^5 CFU/mL.
(§9) Incubation: Cover the 96-well plate inoculated with the experimental strains, and incubate in a constant temperature and humidity box at 37° C. for 20-22 hours.
A general note: Dilution methods test growth across graded concentrations, often in twofold steps.

Test [2] relates to carbapenem-resistant Acinetobacter baumannii CR-AB 18-560. As to the kind of experiment: MIC by microbroth dilution, CR-AB 18-560.
Description: as §1, §2, §3, §4, §5, §6, §7, §8, §9

The test system of test [3] is methicillin-resistant Staphylococcus aureus MRSA 18-222. In words: MIC by microbroth dilution, MRSA 18-222.
Description: as §1, §2, §3, §4, §5, §6, §7, §8, §9

Test [4] has as its system vancomycin-resistant enterococci VRE 18-80. In words: MIC by microbroth dilution, VRE 18-80.
Description: as §1, §2, §3, §4, §5, §6, §7, §8, §9

Test [5] deals with multidrug-resistant Pseudomonas aeruginosa MDR-PA 18-174. As to the kind of experiment: MIC by microbroth dilution, MDR-PA 18-174. The settings on record: for Minimum bacteriostatic concentration: MDR-PA 18-174.
Description: as §1, §2, §3, §4, §5, §6, §7, §8, §9
In FIGS. 1-6, the twelve wells represent twelve groups, from left to right, positive, 128 μg/mL, 64 μg/mL, 32 μg/mL, 16 μg/mL, 8 μg/mL, 4 μg/mL, 2 μg/mL, 1 μg/mL, 0.25 μg/mL, 0.0625 μg/mL, Negative.

Test [6] relates to methicillin-resistant Staphylococcus aureus MRSA 18-575. In words: MIC by microbroth dilution, MRSA 18-575.
Description: as §1, §2, §3, §4, §5, §6, §7, §8, §9

The test system of test [7] is multidrug-resistant Pseudomonas aeruginosa MDR-PA 18-202. In words: MIC by microbroth dilution, MDR-PA 18-202.
Description: as §1, §2, §3, §4, §5, §6, §7, §8, §9

Test [8] has as its system vancomycin-resistant enterococci VRE 18-94. In words: MIC by microbroth dilution, VRE 18-94. The settings on record: for Minimum bacteriostatic concentration: VRE 18-94.
Description: as §1, §2, §3, §4, §5, §6, §7, §8, §9

The test system of test [9] is drug-resistant bacteria. As to the kind of experiment: Antibacterial activity test, whole panel of drug-resistant strains. As to conditions: all tested strains, summary in words.
Description: as §1, §2, §3, §4
The experimental strain was cultured to the logarithmic growth phase: under aseptic condition, the experimental strain was inoculated into 100 mL NMB medium and incubated in a constant temperature and humidity incubator at 37° C. for 20-22 hours. […]

Values after ≈ are worked out from the molar mass of the structure shown.

For `O=C(Nc1cc(=O)[nH]c(=O)[nH]1)c1cc(O)c2c(c1)C(=O)c1cccc(O)c1C2=O` [6-Aminouracil cassic acid ester, N-(2,6-dioxo-1,2,3,6-tetrahydropyrimidin-4-yl)-4,5-dihydroxy-9,10-dioxo-9,10-dihydroanthracene-2-carboxamide], the Minimum bacteriostatic concentration was greater than 128 µg/mL in [1]; greater than 128 µg/mL in test [2]; greater than 128 µg/mL in test [3]; greater than 128 µg/mL in test [4]; 128 µg/mL in test [5]; greater than 128 µg/mL in test [6]. Besides, the Minimum bacteriostatic concentration was greater than 128 µg/mL in [7] and 64 µg/mL in test [8]. In addition, the MIC in test [5] (multi-drug resistant Pseudomonas aeruginosa MDR-PA, strain not given) was 128 µg/mL (≈ 325 µM); in test [8] (vancomycin resistant Enterococcus VRE, strain not given) it was 64 µg/mL (≈ 163 µM).

Take `Nc1cc(=O)[nH]c(=O)[nH]1` [6-Aminouracil]: the Minimum bacteriostatic concentration in test [1], in [2], in [3], in [4], in test [5] and in test [6] was greater than 128 µg/mL throughout. Further, the Minimum bacteriostatic concentration in test [7] and in test [8] was greater than 128 µg/mL in each case. For the same molecule, the “inhibitory effect on drug-resistant bacteria” value in [9] was “no inhibitory effect”.

On to `O=C(O)c1cc(O)c2c(c1)C(=O)c1cccc(O)c1C2=O` [Cassic acid], for which the Minimum bacteriostatic concentration in [1], in test [2], in test [3], in test [4], in test [5] and in [6] was greater than 128 µg/mL each time. Besides, the Minimum bacteriostatic concentration in [7] and in test [8] was greater than 128 µg/mL each time. Further, in test [9], the “inhibitory effect on drug-resistant bacteria” value is “no inhibitory effect”.

For the molecule `Cc1nnc(SCC2=C(C(=O)O)N3C(=O)[C@@H](NC(=O)Cn4cnnn4)[C@H]3SC2)s1` [Cefazolin sodium, cefazolin sodium], the Minimum bacteriostatic concentration was greater than 128 µg/mL in test [1]; greater than 128 µg/mL in test [2]; greater than 128 µg/mL in test [3]; 32 µg/mL in test [4]; 8 µg/mL in [5]; greater than 128 µg/mL in test [6]. The Minimum bacteriostatic concentration is 128 µg/mL in test [7] and greater than 128 µg/mL in test [8].

Turning to `CO/N=C(\C(=O)N[C@@H]1C(=O)N2C(C(=O)O)=C(CSc3nc(=O)c(=O)[nH]n3C)CS[C@H]12)c1csc(N)n1` [Ceftriaxone sodium, ceftriaxone sodium], the Minimum bacteriostatic concentration was greater than 128 µg/mL in test [1]; greater than 128 µg/mL in test [2]; greater than 128 µg/mL in test [3]; 8 µg/mL in [4]; 128 µg/mL in [5]; greater than 128 µg/mL in test [6]. In addition, the results for the Minimum bacteriostatic concentration in test [7] and in test [8] were 16 µg/mL and greater than 128 µg/mL, respectively.

Turning to gentamicin, the Minimum bacteriostatic concentration in [1] was greater than 128 µg/mL; in test [2], greater than 128 µg/mL; in [3], 128 µg/mL; in test [4], 0.0625 µg/mL; in test [5] it was 0.0625 µg/mL; in test [6], 2 µg/mL. For the same molecule, the values for the Minimum bacteriostatic concentration in test [7] and in test [8] were 0.0625 µg/mL and greater than 128 µg/mL, respectively.
